Assay results from patent US9403873B2, “Peptides targeting receptor activator of nuclear factor-κB (RANK) and their applications” (UNIVERSITE DE NANTES, priority 2011, dated 2016).
“Also recorded” adds a separate entry of the source. Ends that are not written are not given here.

What was measured:
murine CD11b+ cells = type: cell-based, mouse
Description: Human peripheral blood mononuclear cells (PBMCs) were isolated by centrifugation over Ficoll gradient (Sigma, Saint Quentin Fallavier, France). CD14^+ cells were magnetically labeled with CD14 Microbeads and positively selected by MACS technology (Miltenyi Biotec, Paris, France) as described previously (Duplomb et al. 2008). CD11b^+ monocytes were purified from murine bone marrow cells obtained by flushing the bone marrow from femora and tibiae of 4-week-old C57BL6 male mice, using MACS microbeads (Baud'huin et al. 2010). The purity of cell preparations was around 96%, as controlled by flow cytometry. Generation of osteoclasts from human CD14^+ and murine CD11b^+ monocytes was performed as described previously (Duplomb et al. 2008, Baud′huin et al. 2010). Briefly, purified cells were cultured in α-minimum essential medium (α-MEM, Gibco/Invitrogen, USA) with 10% fetal calf serum and 25 ng/mL human/murine macrophage colony-stimulating factor (M-CSF, R&D Systems, Abindgton, UK). After 3 days of culture, cell medium was replaced by fresh medium containing M-CSF and recombinant human RANKL (100 ng/mL, R&D system), supplemented with or without a polypeptide of interest (0.5-100 μM) or 50 ng/mL human OPG (R&D Systems) used as a reference inhibitor. Soluble cytokines, receptor and polypeptides were renewed every 3 days until multinucleated osteoclasts had formed. After 12 days of culture for CD14^+ cells and 15 days for CD11b^+ cells, osteoclasts were visualized by TRAP staining (Sigma, France) and cells formed with three or more nuclei were manually counted and analyzed statistically.

[1] = system: ovariectomized C57BL/6 mice; experiment: Ovariectomy-induced bone loss in mice, micro-CT of tibiae and L4 vertebrae; type: in vivo, mouse; conditions: 35 days
Description: Eight-week-old ovariectomized (OVX) female C57BL6 and non-ovariectomized control mice were purchased from Janvier (Le Genest Saint Ilsle, France). Mice were housed under pathogen-free conditions at the Experimental Therapy Unit (Faculty of Medicine, University of Nantes, France), and animal care and experimental protocols were approved by the French Ministry of Research and were done in accordance with the institutional guidelines of the French Ethical Committee and under the supervision of authorized investigators. After recovery from OVX surgery for 7 days and acclimation, the mice were randomly divided into treatment groups receiving daily subcutaneous injections of a peptide and a control group receiving daily injections of the vehicle (PBS) only. Non-ovariectomized or sham-operated mice were included in the studies as healthy controls. Three experimental protocols were established. Protocol 1: Ovariectomized mice received daily s.c. injections of 10 mg/kg body weight Pep8 (Pep8, n=8) or vehicle only (OVX, n=8). Non-ovariectomized (NOV, n=8) mice served as normal controls. Protocol 2: Ovariectomized mice were randomly divided into four groups (n=8), receiving daily treatments with pegylated Pep8 (Pep8-NPEG5) at 10 mg/kg or 2.5 mg/kg, or unpegylated Pep8 at a dose of 10 mg/kg/d, or the vehicle only. Sham-operated mice (n=5) served as healthy controls. Protocol 3: Ovariectomized mice receiving daily treatments with pegylated Pep8 (Pep8-NPEG8) at 10 mg/kg or 2.5 mg/kg, as described before, or unpegylated Pep8 at a lower dose of 2.5 mg/kg/d, or the vehicle only. Sham-operated mice (n=8) served as healthy controls.
(§1) During the experimental period, the body weight of the mice was monitored. […] After treatment for five weeks, mice were anesthetized with isoflurane (2%, 1 L/min) and sacrificed by cervical dislocation. Lumbar vertebrae and tibiae were collected for micro-CT analysis and stored at 4° C. in 4% paraformaldehyde until further analysis. Additionally, internal organs (heart, liver, lungs, kidneys, spleen, intestines and thymus) of some mice (n=3 per group) were harvested and stored for toxicity screening.
Analysis of architectural variables of tibiae and vertebrae of mice was performed using the high-resolution X-ray micro-CT system for small animal imaging SkyScan-1072 (SkyScan, Belgium). After scanning, the image data were transferred to a workstation and the proximal tibiae and the fourth lumbar vertebrae (L4) were rendered for 3-D display and calculation of the structural indices (Parfitt et al. 1987) using the SkyScan analysis system (CT-analyser, CT-volume, SkyScan). For trabecular bone parameters in tibiae, transverse CT slices were obtained in the region of interest in the axial direction from the trabecular bone ca. 0.1 mm below the growth plate to the mid-femur. Contours were defined and drawn close to the cortical bone. The trabecular bone was then removed and analyzed separately. Fifty slices (1 mm) at approximately […] distal to the growth plate of the proximal ends of the tibiae were used for analysis. […] The threshold level for the measurements was set at 55 for the analyses. The analysis of the specimens involved the following bone measurements: bone volume fraction (BV/TV, %), trabecular number (TbN), trabecular thickness (TbTh) and trabecular spacing (TbSp).

[2] = system: ovariectomized C57BL/6 mice; experiment: Toxicity in ovariectomized mice (body weight, organ histology); type: in vivo, mouse; conditions: 10 mg/kg/day
Procedure: as §1
After sacrifice, organs were conserved and fixed in 4% PFA at 4° C., and embedded in paraffin. Sections (4 μm) were cut and stained with hematoxylin and eosin (Lamoureux et al. 2009, Baud′Huin et al. 2010). General morphology of organs was evaluated on each section using a DMRXA microscope (Leica, Nussloch, Germany).

[3] = 10 mg/kg/day s.c., vs vehicle-treated OVX mice

Sequence: NVLKLCSGE [Pep8, NVLKLCSGE]
- IC50 (murine CD11b+ cells): 30 µM
- IC50 of osteoclast formation (murine CD11b+ cells): 29 µg/mL
- number of TRAP-positive multinucleated cells, % of the number formed without the polypeptide (murine CD11b+ cells; 100 μM, murine cultures): 28%
- protection against OVX-induced trabecular bone loss (μCT, tibiae) ([1]; 2.5 mg/kg/d s.c.): less efficient
- trabecular BV/TV and TbN, tibiae ([1]; 2.5 mg/kg/d, vs vehicle): only slightly, but not significantly increasing
- protection against OVX-induced trabecular bone loss (μCT) ([1]; 10 mg/kg/d s.c.): prevented the loss of trabecular bone; also recorded: overall increase in trabecular bone density
- increase of TbN, proximal tibia [1, 3]: 71%
- increase of TbTh, proximal tibia [1, 3]: 14%
- increase of trabecular BV/TV, proximal tibia [1, 3]: 93%
- TbS, proximal tibia ([1]; 10 mg/kg/day s.c., vs vehicle-treated mice): decline
- TbN, lumbar vertebrae ([1]; 10 mg/kg/day): increased
- TbS, lumbar vertebrae ([1]; 10 mg/kg/day): reduced
- TbTh, lumbar vertebrae ([1]; 10 mg/kg/day, vs OVX control mice): slightly, but not statistically significantly increased
- vertebral trabecular BV/TV ([1]; lumbar vertebrae, 10 mg/kg/day): lower in OVX than Pep8-treated mice
- histopathological evaluation of major organs ([2]; 5 weeks, heart, lungs, liver, kidneys, spleen, skin): No histomorphological difference; also recorded: no toxic effects
- effect on body weight in OVX mice ([2]; 35 days): no effect
